Results from ChEMBL document CHEMBL4393697, “Lipophilic efficient phenylthiazoles with potent undecaprenyl pyrophosphatase inhibitory activity” (Eur J Med Chem, 2019).
Values after ≈ are worked out from the molar mass of the structure shown. Active and inactive are the calls of the source. No cut-off for these calls is given here.

Experiments:
Acinetobacter baumannii [1] = test: Antibacterial activity against Acinetobacter baumannii ATCC 19606 assessed as reduction in bacterial cell growth incubated for 18 to 20 hrs by broth microdilution method; type: functional
Staphylococcus aureus [2] = test: Antibacterial activity against intracellular methicillin resistant Staphylococcus aureus USA400 infected in mouse J774 cells assessed as log10 reduction of viable bacterial cells incubated for 24 hrs followed by re-plating on tryptic soy agar plates at 37 degC for 18 to 22 hrs by broth microdilution assay; type: functional
Staphylococcus aureus [3] = test: Bactericidal activity against vancomycin resistant Staphylococcus aureus VRS11a assessed as reduction in bacterial cell growth incubated for 18 to 20 hrs followed by re-plating on tryptic soy agar plates at 37 degC for 18 hrs by broth microdilution assay; type: functional
Streptococcus pneumoniae [4] = test: Bactericidal activity against Methicillin resistant Streptococcus pneumoniae ATCC 700677 assessed as reduction in bacterial cell growth incubated for 18 to 20 hrs followed by re-plating on tryptic soy agar plates at 37 degC for 18 hrs by broth microdilution assay; type: functional
Staphylococcus aureus [5] = test: Antibacterial activity against vancomycin resistant Staphylococcus aureus VRS10 assessed as reduction in bacterial cell growth incubated for 18 to 20 hrs by broth microdilution method; type: functional
Listeria monocytogenes [6] = test: Bactericidal activity against Listeria monocytogenes ATCC 19111 assessed as reduction in bacterial cell growth incubated for 18 to 20 hrs followed by re-plating on tryptic soy agar plates at 37 degC for 18 hrs by broth microdilution assay; type: functional
Staphylococcus aureus [7] = test: Antibacterial activity against methicillin-resistant Staphylococcus aureus USA300 assessed as reduction in bacterial cell growth incubated for 18 to 20 hrs by broth microdilution method; type: functional
Streptococcus pneumoniae [8] = test: Antibacterial activity against Cephalosporin resistant Streptococcus pneumoniae ATCC 51916 assessed as reduction in bacterial cell growth incubated for 18 to 20 hrs by broth microdilution method; type: functional
Staphylococcus aureus [9] = test: Bactericidal activity against Staphylococcus aureus ATCC 6538 assessed as reduction in bacterial cell growth incubated for 18 to 20 hrs followed by re-plating on tryptic soy agar plates at 37 degC for 18 hrs by broth microdilution assay; type: functional
Escherichia coli [10] = test: Bactericidal activity against Escherichia coli JW55031 harboring deltatolC mutant assessed as reduction in bacterial cell growth incubated for 18 to 20 hrs followed by re-plating on tryptic soy agar plates at 37 degC for 18 hrs by broth microdilution assay; type: functional
Staphylococcus aureus [11] = test: Antibacterial activity against vancomycin resistant Staphylococcus aureus VRS12 assessed as reduction in bacterial cell growth incubated for 18 to 20 hrs by broth microdilution method; type: functional
Staphylococcus aureus [12] = test: Antibacterial activity against Staphylococcus aureus NRS107 assessed as reduction in bacterial cell growth incubated for 18 to 20 hrs by broth microdilution method; type: functional
Escherichia coli [13] = test: BActericidal activity against Escherichia coli BW25113 assessed as reduction in bacterial cell growth incubated for 18 to 20 hrs followed by re-plating on tryptic soy agar plates at 37 degC for 18 hrs by broth microdilution assay; type: functional
Enterococcus faecalis [14] = test: Bactericidal activity against vancomycin resistant Enterococcus faecalis ATCC 51299 assessed as reduction in bacterial cell growth incubated for 18 to 20 hrs followed by re-plating on tryptic soy agar plates at 37 degC for 18 hrs by broth microdilution assay; type: functional
Listeria monocytogenes [15] = test: Antibacterial activity against Listeria monocytogenes ATCC 19111 assessed as reduction in bacterial cell growth incubated for 18 to 20 hrs by broth microdilution method; type: functional
Staphylococcus aureus [16] = test: Bactericidal activity against Staphylococcus aureus NRS107 assessed as reduction in bacterial cell growth incubated for 18 to 20 hrs followed by re-plating on tryptic soy agar plates at 37 degC for 18 hrs by broth microdilution assay; type: functional
J774 = test: Cytotoxicity against mouse J774 assessed as reduction in cell viability at 16 ug/ml incubated for 24 hrs by MTS assay; type: cell-based; conditions: j774, 24 h
Staphylococcus aureus [17] = test: Antibacterial activity against Staphylococcus aureus ATCC 6538 assessed as reduction in bacterial cell growth incubated for 18 to 20 hrs by broth microdilution method; type: functional
Acinetobacter baumannii [18] = test: Bactericidal activity against Acinetobacter baumannii ATCC 19606 assessed as reduction in bacterial cell growth incubated for 18 to 20 hrs followed by re-plating on tryptic soy agar plates at 37 degC for 18 hrs by broth microdilution assay; type: functional
[19] = system: Staphylococcus epidermidis; test: Bactericidal activity against methicillin resistant Staphylococcus epidermidis NRS101 assessed as reduction in bacterial cell growth incubated for 18 to 20 hrs followed by re-plating on tryptic soy agar plates at 37 degC for 18 hrs by broth microdilution assay; type: functional
Pseudomonas aeruginosa [20] = test: Antibacterial activity against Pseudomonas aeruginosa ATCC 15442 assessed as reduction in bacterial cell growth incubated for 18 to 20 hrs by broth microdilution method; type: functional
Enterococcus faecium [21] = test: Bactericidal activity against vancomycin resistant Enterococcus faecium ATCC 700221 assessed as reduction in bacterial cell growth incubated for 18 to 20 hrs followed by re-plating on tryptic soy agar plates at 37 degC for 18 hrs by broth microdilution assay; type: functional
Staphylococcus aureus [22] = test: Antibacterial activity against methicillin resistant Staphylococcus aureus USA400 assessed as reduction in bacterial cell growth incubated for 18 to 20 hrs by broth microdilution method; type: functional
Klebsiella pneumoniae = test: Antibacterial activity against Klebsiella pneumoniae BAA-1706 assessed as reduction in bacterial cell growth incubated for 18 to 20 hrs by broth microdilution method; type: functional
Enterococcus faecalis [23] = test: Antibacterial activity against vancomycin resistant Enterococcus faecalis ATCC 51299 assessed as reduction in bacterial cell growth incubated for 18 to 20 hrs by broth microdilution method; type: functional
Streptococcus pneumoniae [24] = test: Antibacterial activity against Methicillin resistant Streptococcus pneumoniae ATCC 700677 assessed as reduction in bacterial cell growth incubated for 18 to 20 hrs by broth microdilution method; type: functional
Pseudomonas aeruginosa [25] = test: Bactericidal activity against Pseudomonas aeruginosa ATCC 15442 assessed as reduction in bacterial cell growth incubated for 18 to 20 hrs followed by re-plating on tryptic soy agar plates at 37 degC for 18 hrs by broth microdilution assay; type: functional
Staphylococcus aureus [26] = test: Bactericidal activity against vancomycin resistant Staphylococcus aureus VRS10 assessed as reduction in bacterial cell growth incubated for 18 to 20 hrs followed by re-plating on tryptic soy agar plates at 37 degC for 18 hrs by broth microdilution assay; type: functional
Enterococcus faecium [27] = test: Antibacterial activity against vancomycin resistant Enterococcus faecium ATCC 700221 assessed as reduction in bacterial cell growth incubated for 18 to 20 hrs by broth microdilution method; type: functional
Staphylococcus aureus [28] = test: Antibacterial activity against vancomycin resistant Staphylococcus aureus VRS11a assessed as reduction in bacterial cell growth incubated for 18 to 20 hrs by broth microdilution method; type: functional
Escherichia coli [29] = test: Antibacterial activity against Escherichia coli JW55031 harboring deltatolC mutant assessed as reduction in bacterial cell growth incubated for 18 to 20 hrs by broth microdilution method; type: functional
Staphylococcus aureus [30] = test: Bactericidal activity against methicillin resistant Staphylococcus aureus NRS119 assessed as reduction in bacterial cell growth incubated for 18 to 20 hrs followed by re-plating on tryptic soy agar plates at 37 degC for 18 hrs by broth microdilution assay; type: functional
Staphylococcus aureus [31] = test: Bactericidal activity against methicillin-resistant Staphylococcus aureus USA300 assessed as reduction in bacterial cell growth incubated for 18 to 20 hrs followed by re-plating on tryptic soy agar plates at 37 degC for 18 hrs by broth microdilution assay; type: functional

Structure (SMILES)	MIC (Acinetobacter baumannii [1]) [µg/mL]	MBC (Staphylococcus aureus [3]) [µg/mL]	MBC (Streptococcus pneumoniae [4]) [µg/mL]	MIC (Staphylococcus aureus [5]) [µg/mL]	MBC (Listeria monocytogenes [6]) [µg/mL]	MIC (Staphylococcus aureus [7]) [µg/mL]	MIC (Streptococcus pneumoniae [8]) [µg/mL]	MBC (Staphylococcus aureus [9]) [µg/mL]	MBC (Escherichia coli [10]) [µg/mL]	MIC (Staphylococcus aureus [11]) [µg/mL]	MIC (Staphylococcus aureus [12]) [µg/mL]	MBC (Escherichia coli [13]) [µg/mL]	MBC (Enterococcus faecalis [14]) [µg/mL]	MIC (Listeria monocytogenes [15]) [µg/mL]	MBC (Staphylococcus aureus [16]) [µg/mL]	Activity (J774)	MIC (Staphylococcus aureus [17]) [µg/mL]	MBC (Acinetobacter baumannii [18]) [µg/mL]	MBC [19] [µg/mL]	MIC (Pseudomonas aeruginosa [20]) [µg/mL]	further results
C/C(=N\NC(=N)N)c1sc(-c2ccc(C#CC3(O)CCCCC3)cc2)nc1C	64 (≈ 162 µM)	8 (≈ 20.2 µM)	8 (≈ 20.2 µM)	2 (≈ 5.06 µM)	8 (≈ 20.2 µM)	4 (≈ 10.1 µM)	8 (≈ 20.2 µM)	4 (≈ 10.1 µM)	32 (≈ 80.9 µM)	4 (≈ 10.1 µM)	4 (≈ 10.1 µM)	> 64	16 (≈ 40.5 µM)	4 (≈ 10.1 µM)	8 (≈ 20.2 µM)	Non-Toxic	2 (≈ 5.06 µM)	64 (≈ 162 µM)	4 (≈ 10.1 µM)	> 64	Activity call (Staphylococcus aureus [2]): Active; MBC (Enterococcus faecium [21]): 1 µg/mL (≈ 2.53 µM); MIC (Staphylococcus aureus [22]): 4 µg/mL (≈ 10.1 µM); MIC (Klebsiella pneumoniae): > 64 µg/mL; MIC (Enterococcus faecalis [23]): 8 µg/mL (≈ 20.2 µM); MIC (Streptococcus pneumoniae [24]): 4 µg/mL (≈ 10.1 µM); MBC (Pseudomonas aeruginosa [25]): > 64 µg/mL; MBC (Staphylococcus aureus [26]): 8 µg/mL (≈ 20.2 µM); MIC (Enterococcus faecium [27]): 1 µg/mL (≈ 2.53 µM); MIC (Staphylococcus aureus [28]): 1 µg/mL (≈ 2.53 µM); MIC (Escherichia coli [29]): 32 µg/mL (≈ 80.9 µM); MBC (Staphylococcus aureus [30]): 4 µg/mL (≈ 10.1 µM); MBC (Staphylococcus aureus [31]): 16 µg/mL (≈ 40.5 µM)
C/C(=N\NC(=N)N)c1sc(-c2ccc(C#CC(C)(C)O)cc2)nc1C	64 (≈ 180 µM)	4 (≈ 11.3 µM)	8 (≈ 22.5 µM)	4 (≈ 11.3 µM)	8 (≈ 22.5 µM)	4 (≈ 11.3 µM)	4 (≈ 11.3 µM)	4 (≈ 11.3 µM)	16 (≈ 45 µM)	4 (≈ 11.3 µM)	4 (≈ 11.3 µM)	> 64	8 (≈ 22.5 µM)	4 (≈ 11.3 µM)	4 (≈ 11.3 µM)	Toxic	2 (≈ 5.63 µM)	64 (≈ 180 µM)	4 (≈ 11.3 µM)	> 64	MBC (Enterococcus faecium [21]): 4 µg/mL (≈ 11.3 µM); MIC (Staphylococcus aureus [22]): 2 µg/mL (≈ 5.63 µM); MIC (Klebsiella pneumoniae): > 64 µg/mL; MIC (Enterococcus faecalis [23]): 4 µg/mL (≈ 11.3 µM); MIC (Streptococcus pneumoniae [24]): 4 µg/mL (≈ 11.3 µM); MBC (Pseudomonas aeruginosa [25]): > 64 µg/mL; MBC (Staphylococcus aureus [26]): 16 µg/mL (≈ 45 µM); MIC (Enterococcus faecium [27]): 2 µg/mL (≈ 5.63 µM); MIC (Staphylococcus aureus [28]): 1 µg/mL (≈ 2.81 µM); MIC (Escherichia coli [29]): 16 µg/mL (≈ 45 µM); MBC (Staphylococcus aureus [30]): 4 µg/mL (≈ 11.3 µM); MBC (Staphylococcus aureus [31]): 16 µg/mL (≈ 45 µM)
